One assay concerns pNSCs. Kind of assay: pNSC self-renewal, clonogenicity and culture on Matrigel. The assay is classed as cell-based, human. On the procedure: (§1) hESCs (HUES9 and HUES1) at about 20% confluence were treated with 3 μM CHIR99021 (Cellagentech), 2 μM SB431542 (Cellagentech), 0.1 μM Compound E (γ-Secretase Inhibitor XXI, EMD Chemicals Inc.) in neural induction media containing Advanced DMEM/F12:Neurobasal (1:1), 1×N2, 1×B27, 1% Glutmax, 5 μg/mL BSA and 10 ng/mL hLIF (Millipore), for 7 d. The culture was then split 1:3 for the next six passages using Accutase and cultured in neural induction media supplemented with 3 μM CHIR99021 and 2 μM SB431542 on X-ray inactivated MEF feeders or Matrigel-coated plates. After six passages, the cells were split 1:10 regularly. Neural induction of H1 hESCs follows the same protocol, but using 4 μM CHIR99021, 3 μM SB431542, and 0.1 μM compound E in the first 7 d, after which the cells were regularly cultured with neural induction media supplemented with 3 μM CHIR99021 and 2 μM SB431542. During the initial few passages, overnight treatment with the ROCK inhibitor (Y-27632, 5 μM, Cellagentech) was also used to enhance cell survival, but not required in following passages. In the present study, neural induction data were collected under feeder conditions except the FACS analysis of FIG. 6 performed under feeder-free condition. pNSCs were expanded on Matrigel-coated surfaces.
pNSCs can long-term self-renew over serial passages on Matrigel with SBR431542, CHIR, and hLIF. pNSCs generated from HUES9 and H1 hESCs were routinely passaged 1:10 and have been cultured for >30 passages without obviously losing proliferative capacity, which is equivalent to at least 94 population doublings. However, individual omission of hLIF, SB431542, or CHIR from the media compromised pNSCs' long-term self-renewal. Single pNSC is clonogenic on Matrigel in the presence of hLIF/SB431542/CHIR (FIG. 2A). […] Despite their highly proliferative and clonogenic capacity, pNSCs are not tumorigenic in SCID beige mice.

A further assay deals with gamma secretase. The note with it: read-out: IC50, gamma secretase inhibitor; cited from earlier work.
A further assay has as its target GSK3β (Homo sapiens, UniProt P49841). To be noted: cited from earlier work.
The target in a further assay is SAPK2/p38 (Homo sapiens, UniProt Q16539). To be noted: inhibitor of CK1 and ALK5; cited from earlier work.
Chain of SAPK2/p38 (Q16539 whole entry): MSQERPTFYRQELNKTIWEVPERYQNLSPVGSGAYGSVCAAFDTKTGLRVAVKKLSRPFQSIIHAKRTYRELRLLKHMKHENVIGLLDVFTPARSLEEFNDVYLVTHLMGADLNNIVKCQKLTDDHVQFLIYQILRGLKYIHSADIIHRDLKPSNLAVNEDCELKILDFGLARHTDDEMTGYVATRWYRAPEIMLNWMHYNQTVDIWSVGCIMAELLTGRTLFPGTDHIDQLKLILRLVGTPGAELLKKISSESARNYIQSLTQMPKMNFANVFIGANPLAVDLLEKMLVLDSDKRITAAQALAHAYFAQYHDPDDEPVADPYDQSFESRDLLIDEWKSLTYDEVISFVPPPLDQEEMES
The next assay concerns GSK3. The note with it: GSK3 inhibitor; cited from earlier work.
The subject of a further assay is Notch signaling. To be noted: Notch signaling inhibitor and gamma secretase inhibitor; cited from earlier work.
For a further assay, the system named is hESCs. The assay can be described thus: Neural induction of hESCs (real-time PCR, immunocytochemistry, flow cytometry). Format: cell-based, human. The procedure: as §1, with “[…]),” for “CHIR99021 (Cellagentech),”, “([…]),” for “(Cellagentech),”, “Neural induction of H1 hESCs follows the same protocol, but using 4 μM CHIR99021, 3 μM SB431542, and 0.1 μM compound E in the first 7 d, after which the cells were regularly cultured with neural induction media supplemented with 3 μM CHIR99021 and 2 μM SB431542.” left out, “([…])” for “(Y-27632, 5 μM, Cellagentech)”, “surfaces. For immunofluorescence assays, pNSCs were fixed in 4% paraformaldehyde for 10 min. Specifically, 4% paraformaldehyde with 0.15% picric acid was used to fix the neuronal differentiation culture. For immunostaining of GABA antigen, the cells were fixed in 4% paraformaldehyde, 0.15% picric acid and 0.02% Glutaraldehyde. […]” for “surfaces.”
In general terms: In qPCR the cycle at which signal appears reflects the starting amount.

Chain of GSK3β (P49841 whole entry, species assumed): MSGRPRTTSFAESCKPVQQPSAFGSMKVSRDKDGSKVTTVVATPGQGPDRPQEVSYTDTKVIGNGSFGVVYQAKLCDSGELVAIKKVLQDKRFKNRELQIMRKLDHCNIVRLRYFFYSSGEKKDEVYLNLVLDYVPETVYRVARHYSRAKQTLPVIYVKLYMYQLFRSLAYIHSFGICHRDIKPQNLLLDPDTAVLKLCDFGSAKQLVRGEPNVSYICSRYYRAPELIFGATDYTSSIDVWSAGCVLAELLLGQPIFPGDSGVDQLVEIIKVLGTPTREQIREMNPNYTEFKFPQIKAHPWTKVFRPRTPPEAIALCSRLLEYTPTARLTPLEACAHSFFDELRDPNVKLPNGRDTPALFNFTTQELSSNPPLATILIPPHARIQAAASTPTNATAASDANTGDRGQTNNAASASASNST

In general, IC50 refers to the concentration at which inhibition is half-maximal. With `C[C@H](NC(=O)Cc1cc(F)cc(F)c1)C(=O)N[C@H]1N=C(c2ccccc2)c2ccccc2N(C)C1=O` [Compound E, (S,S)-2-[2-(3,5-Difluorophenyl)-acetylamino]-N-(1-methyl-2-oxo-5-phenyl-2,3-dihydro-1H-benzo[e][1,4]diazepin-3-yl)-propionamide], the “effect on established pNSCs” value in the assay on pNSCs (48 h treatment) is “rapidly induced pNSCs to differentiate into Double cortin (DCX)-positive neuronal precursors”. Moreover, the “colony formation from single pNSC” value in the assay with pNSCs (on Matrigel) is listed as “no colonies were observed”. Moreover, the IC50 at gamma secretase is roughly 0.3 nM.

As to “bFGF: basic fibroblast growth factor, 20 ng/mL in neural induction media”, the “morphology of pNSCs” value with pNSCs (neural induction media with 20 ng/mL bFGF, 4 d) is on record as “gained rosette-like structures”.

For `O=C1NC(=O)C(c2cccc3c2OCO3)N1` (stereo not drawn) [(Z)-5-(2,3-Methylenedioxyphenyl)imidazolidine-2,4-dione], the IC50 on GSK3β was 27 nM.

Consider `NC(=O)c1ccc(-c2nc(-c3ccc4c(c3)OCCO4)c(-c3ccccn3)[nH]2)cc1` [D 4476, 4-[4-(2,3-Dihydro-1,4-benzodioxin-6-yl)-5-(2-pyridinyl)-1H-imidazol-2-yl]benzamide], for which the “selectivity over SAPK2/p38” value at SAPK2/p38 was greater than 20 fold.

Take `Cc1c[nH]c(-c2cnc(NCCNc3ccc(C#N)cn3)nc2-c2ccc(Cl)cc2Cl)n1` [CHIR99021, 6-(2-(4-(2,4-dichlorophenyl)-5-(4-methyl-1H-imidazol-2-yl)pyrimidin-2-ylamino)ethylamino)nicotinonitrile]: in the assay on GSK3, the IC50 was […].

Regarding `CCC[C@H](N[C@H]1CCc2cc(F)cc(F)c2C1)C(=O)Nc1cn(C(C)(C)CNCC(C)(C)C)cn1` [PF-03084014, (S)-2-(((S)-6,8-difluoro-1,2,3,4-tetrahydronaphthalen-2-yl)amino)-N-(1-(2-methyl-1-(neopentylamino)propan-2-yl)-1H-imidazol-4-yl)pentanamide], the IC50 with Notch signaling is 13.3 nM.

B1: Wnt3a: Wnt3a used to replace CHIR in the neural induction protocol (protein, UniProt P56704 19-352, looked up)
Protein Wnt-3a: SYPIWWSLAVGPQYSSLGSQPILCASIPGLVPKQLRFCRNYVEIMPSVAEGIKIGIQECQHQFRGRRWNCTTVHDSLAIFGPVLDKATRESAFVHAIASAGVAFAVTRSCAEGTAAICGCSSRHQGSPGKGWKWGGCSEDIEFGGMVSREFADARENRPDARSAMNRHNNEAGRQAIASHMHLKCKCHGLSGSCEVKTCWWSQPDFRAIGDFLKDKYDSASEMVVEKHRESRGWVETLRPRYTYFKVPTERDLVYYEASPNFCEPNPETGSFGTRDRTCNVSSHGIDGCDLLCCGRGHNARAERRREKCRCVFHWCCYVSCQECTRVYDVHTCK
On to B1, for which the “effect of replacing CHIR in the neural induction protocol” value in the assay on hESCs is “induced significant spontaneous differentiation and did not generate a homogenous NSC population”.

The values are drawn from patent publication US8883502B2, “Expandable cell source of neuronal stem cell populations and methods for obtaining and using them” (The Regents of the University of California, priority 2010, dated 2014).
